Laboratory results taken from the METLIN SMRT retention time set (Domingo-Almenara et al. 2019).

Experiment: gradient 5% acetonitrile 3 min, to 50% in 2 min, to 85% in 15 min, held 3 min, 100 µL/min
Details: column: Zorbax Extend-C18 2.1 x 50 mm; eluents: water / acetonitrile, 0.1% formic acid
In short: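 Retention time was recorded from adduct peaks, which were picked computationally and each inspected manually. Pure standards ran in mixtures of ~100 molecules on HPLC coupled to a quadrupole time-of-flight mass spectrometer, in positive and negative ionization mode, through a Zorbax Extend-C18 column (2.1 × 50 mm, 1.8 μm) at 100 μL/min. Eluents were water and acetonitrile, each with 0.1% formic acid.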

RP-LC retention time	Structure (SMILES)
962 s	Cc1ccc(CC(=O)Nc2ccc(-c3nc(Cn4cc(C)cn4)c(C)o3)cc2)cc1
644 s	COc1ccc(C(=O)N2CCC(n3c(-c4ccco4)nc4cccnc43)C2)cc1OC (centres undefined)
921 s	Cc1cccc(CNC(=O)Cn2c(C)cc(-c3nnc(-c4ccccc4)o3)c2C)c1
959 s	Cc1cc(NC(=O)NCC(=O)N2CCc3ccccc32)ccc1Br
846 s	COc1ccc(-c2cn3ccn(-c4ccc5c(c4)CCC5)c(=O)c3n2)cc1OC
641 s	COc1ccc(CNC(=O)c2[nH]c3cc(C)sc3c2CN(C)C)cc1OC
626 s	Nc1nc(N2CCOCC2)ncc1C(=O)NCc1ccccc1F
604 s	CCCCS(=O)(=O)N1CCN(c2nc(N3CCOCC3)nc(-n3ccnc3)n2)CC1
762 s	COc1ccc(NC(=O)CN2CCc3[nH]c4c(C)c(Cl)ccc4c(=O)c3C2)cc1Cl
894 s	CC1CCC(C(C)C)C(NC(=O)c2ccncc2)C1 (centres undefined)
977 s	O=C(NCc1noc(CCc2ccccc2)n1)c1ccc(-c2noc(C3CC3)n2)cc1
865 s	Cc1nnc2c(S(=O)(=O)N(Cc3ccccc3)c3cc(F)cc(F)c3)cccn12
639 s	CC(=O)N1CCC2(CC1)OC(=O)C(C)=C2C(=O)NCCCN1CCN(c2cc(C)ccc2C)CC1
1100 s	O=C(NC1(c2nc(-c3cccnc3)no2)CCCCC1)c1nccc2ccccc12
811 s	Cc1ccc(N2CCC(NC(=O)Nc3ccccc3)C2=O)cc1 (centres undefined)
931 s	COc1cccc2c1OC1(C)CC2C(S(=O)(=O)c2ccc(C)c(C)c2)C(=O)N1C (centres undefined)
903 s	CC(NC(=O)c1cc2sccc2n1C)c1ccc2c(c1)OCCO2 (centres undefined)
677 s	O=C(Cc1cccc(F)c1)N1CCCCC1c1nncn1CC1CC1 (centres undefined)
620 s	CCc1nc2c(=O)n(CC(=O)N3CCCC3)nc(C)c2s1
955 s	Cc1cccc(NC(=O)c2cc(C)n3nccc3n2)c1
1070 s	COc1cccc(CN2CC(=O)N(Cc3cccc(F)c3)c3ccccc3S2(=O)=O)c1
696 s	COC(=O)c1cccc(Nc2c(-c3cccc(O)c3)nc3cnccn23)c1
567 s	Cc1ncc2c(n1)CCCN(CC(=O)NC1CC1)C2=O

RP-LC retention time	Structure (SMILES)
831 s	CCCSc1nnc(CNC(=O)c2ccccc2F)n1-c1cccc(C(F)(F)F)c1
722 s	COCc1nc(CCNS(=O)(=O)Cc2ccccc2)no1
659 s	Cc1ccccc1-c1nc2cnccn2c1NCCC(=O)NC(C)c1cccs1 (centres undefined)
705 s	O=C(CSCc1ccccc1)Nc1ccc(CC(=O)NC2CC2)cc1
748 s	CSc1ncccc1C(=O)NCc1cc(-c2ccc3c(c2)OCCO3)on1
819 s	CCn1nnc2ccc(-c3noc(-c4cccc(NC(C)=O)c4)n3)cc21
543 s	COCCO[C@H]1C(=O)N(C2CCN(S(C)(=O)=O)CC2)[C@H]1c1ccncc1
737 s	COc1ccccc1CNC(=O)C1CCCN(c2nn3c(=O)c4c(nc3s2)CCCC4)C1 (centres undefined)
626 s	O=C(Cc1csc(Nc2ncccn2)n1)NCC(F)(F)F
649 s	COc1ccc(N2CC(CNC(=O)C3CCCC3)OC2=O)cc1OC (centres undefined)
592 s	CC(=O)N(Cc1nn(C)c2c1CN(Cc1cccc(O)c1)CC2)c1ccccc1
879 s	O=C(Cn1ccc2ccc(N3CCOCC3)nc21)N1CCN(c2ccccc2)CC1
790 s	Cc1ccc(C(=O)N2CCOc3ccc(NC(=O)C4CC4)cc3C2)s1
839 s	O=C(CSc1nc(-c2ccccc2)cs1)NCc1ccco1
682 s	Cc1ccc(Nc2ncnc3nc[nH]c23)cc1Cl
882 s	COCCNC(=O)c1ccc(-c2nc(CSc3ccccc3)c(C)o2)cc1
658 s	COC(=O)c1ccc(NC(=O)c2oc(C)nc2C)cc1
1140 s	CCn1c(=O)c(C)nc2cc(-c3noc(-c4ccc(N(C)C)cc4)n3)ccc21
834 s	O=C(Cn1c2ccccc2c2ncn(Cc3nc(C4CC4)no3)c(=O)c21)NC1CCCCC1
706 s	O=S(=O)(Cc1ccccc1)N1CCCC(c2nn[nH]n2)C1 (centres undefined)
722 s	Cn1cc(CCNC(=O)Nc2ccccc2Br)c2cccnc21
785 s	COc1ccc(C(=O)Nc2nc(-c3ccc4c(c3)N(C)C(=O)CO4)cs2)cc1OC
680 s	COCCSc1nnc(NC(=O)C2CCN(C(=O)c3ccccc3F)CC2)s1

RP-LC retention time	Structure (SMILES)
989 s	COc1ccc(-c2noc(-c3ccc(N4CCN(C(=O)c5ccco5)CC4)nc3)n2)cc1
947 s	Cc1csc(-c2cc(S(=O)(=O)Nc3ccc(Cl)cc3)cn2CC(=O)N2CCCC2)n1
679 s	COc1ccc(S(=O)(=O)NCc2cccnc2-c2ccc(C)cc2)cc1
719 s	CC(C)N1CCn2cc(S(=O)(=O)Nc3ccc(C#N)cc3)cc2C1=O
595 s	CCCC1c2nccn2CCCN1C(=O)CCc1c(C)noc1C (centres undefined)
783 s	COc1ccc(CNC(=O)NC2CCN(c3ccc(F)c(C)c3)C2=O)cc1 (centres undefined)
566 s	O=C(Nc1cccc(C(F)(F)F)c1)N1CCN(c2ccc(Nc3cccnc3)nn2)CC1
670 s	CCCNC(=O)C1CCN(c2ccc(SCC(=O)Nc3ccccc3Br)nn2)CC1
1030 s	O=c1ccc(-c2ccccc2)nn1CCc1nc(-c2cccc(Cl)c2)no1
641 s	CCCCNC(=O)C1CCCN(c2cc(=O)n(C)c(=O)n2C)C1 (centres undefined)
630 s	O=C(Nc1sc2c(c1C(c1ccncc1)N1CCN(c3ccccn3)CC1)CCCC2)c1ccco1 (centres undefined)
782 s	O=C(C1COCC(=O)N1Cc1ccccc1)N1CCN(c2ccc(C(F)(F)F)cn2)CC1 (centres undefined)
756 s	Cc1nn(-c2ccc(C(=O)NCc3ccco3)cc2)c2c1C(=O)CC(C)(C)C2
1090 s	O=C(CN1C(=O)C(C(=O)N2CCCCCC2)Sc2ccccc21)NC1CCCCC1 (centres undefined)
580 s	CS(=O)(=O)N1CCN(CCNC(=O)NC(c2ccccc2)c2ccccc2)CC1
858 s	CCOC(=O)C1CCCN(S(=O)(=O)c2cc(C(=O)N3CCCCC3)n(C)c2C)C1 (centres undefined)
1070 s	Cc1ccc(-c2cc(C(=O)NCC(C)C)n(C)c2)cc1
718 s	Cn1nc(C2CCCN(C(=O)Nc3ccc4c(c3)OCCO4)C2)n(C2CCCC2)c1=O (centres undefined)
864 s	Cc1cccc(N2CCN(C(=O)CN3CCN(Cc4ccccc4F)C3=O)CC2)c1
810 s	CC1(C(=O)NCc2ccccc2)CCCN(C(=O)NCc2ccccc2)C1 (centres undefined)
912 s	COc1ccc(CNC(=O)C2(C)CCN(S(=O)(=O)c3c(C)cc(C)cc3C)CC2)cc1
1140 s	CCn1c(=O)c(N2CCCC(C(=O)NCc3cc(Br)ccc3OC)C2)nc2ccccc21 (centres undefined)
701 s	CC(C)n1cnc(S(=O)(=O)N2CCC(C(=O)NCc3cccs3)CC2)c1

RP-LC retention time	Structure (SMILES)
842 s	Cc1sc(NC(=O)c2ccc(S(=O)(=O)N(C)C)cc2)nc1-c1ccc2c(c1)NC(=O)CO2
899 s	CCOC(=O)c1nc(N(CC)Cc2ccccc2)c2ccccc2n1
610 s	COc1ccc(NC(=O)N2CCC(n3cnnc3C3CC3)C2)c(OC)c1 (centres undefined)
592 s	CCC(Oc1ccc(=O)n(-c2ccc(F)cc2)n1)C(=O)Nc1cc(OC)c(OC)c(OC)c1 (centres undefined)
1200 s	Clc1ccc(-c2csc(Cc3nc(-c4ccc5c(c4)OCO5)no3)n2)cc1
707 s	CCc1ccc(CNC(=O)Cn2c(CC)nc3c(c2=O)CN(Cc2ccccc2)CC3)cc1
632 s	CC1CC(=O)c2cnc(N3CCN(Cc4ccc5c(c4)OCO5)CC3)nc2C1 (centres undefined)
1080 s	O=C(Nc1ccccc1)C1CCN(S(=O)(=O)c2cc(-c3noc(C4CCC4)n3)cs2)CC1
722 s	Cc1ccc(NS(=O)(=O)c2cc3n(c2)CCN(C)C3=O)cc1C
786 s	Cc1cc(NC(=O)Cn2cccc2-c2nc(-c3ccc4c(c3)OCO4)no2)n[nH]1
922 s	COc1cccc(N2CCN(c3nnc(-c4nnc(C)o4)c4ccccc34)CC2)c1
909 s	COC(=O)CCc1sc(Nc2ccc(OC)cc2)nc1-c1ccc(OC)cc1
1100 s	CCn1c(=O)oc2cc(-c3noc(-c4cc(F)ccc4F)n3)ccc21
663 s	O=C(NC1CCCCC1)N1CCC(OC2CCN(Cc3ccccc3)CC2)CC1
659 s	O=C(CCn1cnc2cc(-c3noc(C4CC(=O)N(c5ccccc5)C4)n3)ccc21)N1CCCC1 (centres undefined)
754 s	Cc1cc(C)c(NC(=O)Cn2cnc3nc(N4CCC(C(=O)NC5CC5)CC4)sc3c2=O)c(C)c1
1040 s	CC(C)c1noc(-c2cc(=O)n(CC(=O)Nc3cc(F)ccc3F)c3ccccc23)n1
636 s	CCN1CCN(CCNC(=O)c2sc3cc(Cl)ccc3c2OC)CC1
1050 s	COC(=O)c1sccc1NC(=O)N1CCCC1c1nc(-c2ccccc2)no1 (centres undefined)
736 s	COc1ccc(-c2n[nH]c3c2C(c2ccc(OC)cc2OC)NC3=O)cc1 (centres undefined)
